According to patent publication US9416141B2 (University of Washington through its Center for …, priority 2012, dated 2016):
Structures can show the parent of a compound that is named as a salt.

Test system: hair cells
Assay: Hair cell toxicity assay in zebrafish (neomycin-induced hair cell death, DASPEI staining of neuromasts)
Assay type: in vivo
Settings: Danio rerio; for Emax at 8.3 µM: maximum observed @ 8.3 μM test compound; for EC50: zebrafish larvae 5-7 dpf, 1 h pre-treatment, then 200 micromolar neomycin + test compound 30 min, read-out: HC50 (concentration that would produce 50% hair cell survival); for Emax at 2.8 µM: maximum observed @ 2.8 μM test compound; for Emax at 25 µM: maximum observed @ 25 μM test compound
In short: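 Hair cell survival, as % of untreated controls, came from DASPEI scoring (0-2 each, ten neuromasts on one side) in 5-7 dpf larvae. These had 1 h compound pre-exposure (0.010-25 μM), then 200 μM neomycin with compound for 30 min. HCmax is peak protection; HC50 interpolated between flanking concentrations only when ≥50% survive.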

[1] = 200 micromolar neomycin, read-out: Max HC Protection (HCmax, % hair cell survival)

| SMILES | Emax at 8.3 µM [1] [%] | EC50 [nM] | Emax at 2.8 µM [1] [%] | Emax at 25 µM [1] [%] | Emax at 12.5 µM (maximum observed @ 12.5 μM test compound, 200 micromolar neomycin, read-out: Max HC Protection (HCmax, % hair cell survival)) [%] |
| --- | --- | --- | --- | --- | --- |
| NC(=O)c1c(NC(=O)Nc2ccc(Cl)cc2)sc2c1CCN(CC1CCC1)C2 [Example 12, 2-[3-(4-Chlorophenyl)ureido]-6-(cyclobutylmethyl)-4,5,6,7-tetrahydrothieno[2,3-c]pyridine-3-carboxamide hydrochloride] | 73 | 1000 to 10000 |  |  |  |
| COC(=O)C(C)(C)CN1CCc2c(sc(NC(=O)Nc3ccc(Cl)cc3)c2C(N)=O)C1 [Example 38, Methyl 3-{3-carbamoyl-2-[3-(4-chlorophenyl)ureido]-4,5-dihydrothieno[2,3-c]pyridin-6(7H)-yl}-2,2-dimethylpropanoate hydrochloride] |  |  | 14 |  |  |
| CCN1CCc2c(sc(NC(=O)Nc3ccc4c(c3)CCCC4)c2C(N)=O)C1 [Example 227, 6-ethyl-2-{[(5,6,7,8-tetrahydronaphthalen-2-yl)carbamoyl]amino}-4H,5H,6H,7H-thieno[2,3-c]pyridine-3-carboxamide] |  | 1000 to 10000 |  | 80 |  |
| C#CCCC(=O)NCCCN1CCc2c(sc(NC(=O)Nc3ccc(Cl)cc3)c2C(N)=O)C1 [Example 216, 2-{[(4-chlorophenyl)carbamoyl]amino}-6-[3-(pent-4-ynamido)propyl]-4H,5H,6H,7H-thieno[2,3-c]pyridine-3-carboxamide] |  | 1000 to 10000 |  | 97 |  |
| CC(C)(O)C[N+]1(C)CCc2c(sc(NC(=O)Nc3ccc(Cl)cc3)c2C(N)=O)C1 (stereo not shown) [Example 202, 3-Carbamoyl-2-[3-(4-chlorophenyl)ureido]-6-(2-hydroxy-2-methylpropyl)-6-methyl-4,5,6,7-tetrahydrothieno[2,3-c]pyridin-6-ium iodide] | 85 | < 1000 |  |  |  |
| CCN1CCc2c(sc(NC(=O)Nc3ccc(I)cc3)c2C(N)=O)C1 [Example 224, 6-ethyl-2-{[(4-iodophenyl)carbamoyl]amino}-4H,5H,6H,7H-thieno[2,3-c]pyridine-3-carboxamide] |  | 1000 to 10000 |  |  | 94 |
| NC(=O)c1c(NC(=O)Nc2ccc(Cl)cc2)sc2c1CCC(N1CCC1)C2 (stereo not shown) [Example 43, 6-(Azetidin-1-yl)-2-[3-(4-chlorophenyl)ureido]-4,5,6,7-tetrahydrobenzo[b]thiophene-3-carboxamide hydrochloride] |  | 1000 to 10000 |  | 93 |  |
| CCN1CCc2c(sc(NC(=O)Nc3ccc(C(F)(F)F)cc3)c2C(N)=O)C1 [Example 221, 6-ethyl-2-({[4-(trifluoromethyl)phenyl]carbamoyl}amino)-4H,5H,6H,7H-thieno[2,3-c]pyridine-3-carboxamide] |  | 1000 to 10000 |  | 68 |  |
| CC[N+]1(C)CCc2c(sc(NC(N)=O)c2C(N)=O)C1 (stereo not shown) [Example 184, 3-Carbamoyl-6-ethyl-6-methyl-2-ureido-4,5,6,7-tetrahydrothieno[2,3-c]pyridin-6-ium iodide] |  |  |  | 30 |  |
| CC(C)(C)c1ccc(CCC(=O)NCCCN2CCc3c(sc(NC(=O)Nc4ccc(Cl)cc4)c3C(N)=O)C2)cc1 [Example 213, 6-{3-[3-(4-tert-butylphenyl)propanamido]propyl}-2-{[(4-chlorophenyl)carbamoyl]amino}-4H,5H,6H,7H-thieno[2,3-c]pyridine-3-carboxamide] |  | < 1000 | 92 |  |  |
| CCOC(=O)CC[N+]1(C)CCc2c(sc(NC(=O)Nc3ccc(Cl)cc3)c2C(N)=O)C1 (stereo not shown) [Example 160, 3-Carbamoyl-2-[3-(4-chlorophenyl)ureido]-6-(3-ethoxy-3-oxopropyl)-6-methyl-4,5,6,7-tetrahydrothieno[2,3-c]pyridin-6-ium chloride iodide] |  | 1000 to 10000 | 70 |  |  |
| CCN1CCc2c(sc(NC(=O)Nc3ccc(CC(=O)OC(C)(C)C)cc3)c2C(N)=O)C1 [Example 30, tert-Butyl 2-{4-[3-(3-carbamoyl-6-ethyl-4,5,6,7-tetrahydrothieno[2,3-c]pyridin-2-yl)ureido]phenyl}acetate] |  | 1000 to 10000 |  | 58 |  |
